PubChem BioAssay AID1919005 (Molecular Pharmacology Branch, DTP, NCI, 2023)
Where “and” joins values, the source holds several entries; their conditions need not be identical. Equal values may be shown once.

Test system: 855422-203-R-J1-PDC complex spheroid growth
Test: Anticancer human tumor 855422-203-R-J1-PDC patient-derived bladder carcinoma cell line growth inhibition [AhR]
Conditions: for viability, T/C: stronger effect = lower value; active = viability on the fitted dose curve at most 10% of control; inactive = the rest
How it was run: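 Agents were dosed in half-log steps down from roughly clinical Cmax, or from 10 microM where Cmax was unknown, alone and with AhR antagonists. Read-out: percent test/control growth of tumor spheroids containing HUVEC and MSC stromal cells.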

[1] = curve of first compound, second compound 0.1 µM
[2] = curve of first compound, second compound 0.316 µM
[3] = curve of first compound, second compound 1 µM
[4] = curve of first compound, second compound 3.16 µM
[5] = curve of first compound, second compound 10 µM
[6] = second compound 0.1 µM, first compound 0.0316 µM
[7] = second compound 0.1 µM, first compound 0.1 µM
[8] = second compound 0.1 µM, first compound 0.316 µM
[9] = second compound 0.1 µM, first compound 1 µM
[10] = second compound 0.1 µM, first compound 3.16 µM
[11] = second compound 0.1 µM, first compound 10 µM
[12] = second compound 0.316 µM, first compound 0.0316 µM
[13] = second compound 0.316 µM, first compound 0.1 µM
[14] = second compound 0.316 µM, first compound 0.316 µM
[15] = second compound 0.316 µM, first compound 1 µM
[16] = second compound 0.316 µM, first compound 3.16 µM
[17] = second compound 0.316 µM, first compound 10 µM
[18] = second compound 1 µM, first compound 0.0316 µM
[19] = second compound 1 µM, first compound 0.1 µM
[20] = second compound 1 µM, first compound 0.316 µM
[21] = second compound 1 µM, first compound 1 µM
[22] = second compound 1 µM, first compound 3.16 µM
[23] = second compound 1 µM, first compound 10 µM
[24] = second compound 3.16 µM, first compound 0.0316 µM
[25] = second compound 3.16 µM, first compound 0.1 µM
[26] = second compound 3.16 µM, first compound 0.316 µM
[27] = second compound 3.16 µM, first compound 1 µM
[28] = second compound 3.16 µM, first compound 3.16 µM
[29] = second compound 3.16 µM, first compound 10 µM
[30] = second compound 10 µM, first compound 0.0316 µM
[31] = second compound 10 µM, first compound 0.1 µM
[32] = second compound 10 µM, first compound 0.316 µM
[33] = second compound 10 µM, first compound 1 µM
[34] = second compound 10 µM, first compound 3.16 µM
[35] = second compound 10 µM, first compound 10 µM
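Note: spheroids exposed to agents for seven days before readout.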
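Throughout, for viability, T/C: percent of DMSO vehicle control luminescence viability.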

O=C(c1cc(Cc2n[nH]c(=O)c3ccccc23)ccc1F)N1CCN(C(=O)C2CC2)CC1
> 10000 nM: IC50 (curve of compound)
inactive: viability, T/C (compound 0.0316 µM) 99% and 105% and 111% | viability, T/C (compound 0.1 µM) 112% and 105% and 129% | viability, T/C (compound 0.316 µM) 111% and 99% and 105% | viability, T/C (compound 1 µM) 105% and 98.5% and 116% | viability, T/C (compound 3.16 µM) 114% and 103% and 106% | viability, T/C (compound 10 µM) 87.1% and 93.6% and 102%

Nc1ccn(C2OC(CO)C(O)C2(F)F)c(=O)n1 (configuration not stated)
inactive: viability, T/C (compound 0.0316 µM) 73.2% and 108% and 116% | viability, T/C (compound 0.1 µM) 24.6% and 89.1% and 98.4% | viability, T/C (compound 0.316 µM) 14.1% and 28.8% and 44% | viability, T/C (compound 1 µM) 15.1% and 17.2% and 34.1% | viability, T/C (compound 3.16 µM) 11.1% and 14.4% and 27.2% | viability, T/C (compound 10 µM) 7.1% and 9.36% and 17.2%
55 nM and 212 nM and 290 nM: IC50 (curve of compound)

Nc1ncn(C2CC(O)C(CO)S2)c(=O)n1 (configuration not stated) + Cc1cncc(-c2nc(NCCc3c[nH]c4ccccc34)c3ncn(C(C)C)c3n2)c1
< 0.949 nM: IC50 [5]
> 300 nM: IC50 [1] | IC50 [2] | IC50 [3]
1.28 nM: IC50 [4]
inactive: viability, T/C (second compound 0.1 µM, first compound 0.000949 µM) 92.3% | viability, T/C (second compound 0.1 µM, first compound 0.003 µM) 101% | viability, T/C (second compound 0.1 µM, first compound 0.00949 µM) 92.9% | viability, T/C (second compound 0.1 µM, first compound 0.03 µM) 90.4% | viability, T/C (second compound 0.1 µM, first compound 0.0949 µM) 84.7% | viability, T/C (second compound 0.1 µM, first compound 0.3 µM) 72.2% | viability, T/C (second compound 0.316 µM, first compound 0.000949 µM) 90.1% | viability, T/C (second compound 0.316 µM, first compound 0.003 µM) 83.8% | viability, T/C (second compound 0.316 µM, first compound 0.00949 µM) 77.4% | viability, T/C (second compound 0.316 µM, first compound 0.03 µM) 85% | viability, T/C (second compound 0.316 µM, first compound 0.0949 µM) 78.2% | viability, T/C (second compound 0.316 µM, first compound 0.3 µM) 69.8% | viability, T/C (second compound 1 µM, first compound 0.000949 µM) 74.1% | viability, T/C (second compound 1 µM, first compound 0.003 µM) 88.2% | viability, T/C (second compound 1 µM, first compound 0.00949 µM) 77.3% | viability, T/C (second compound 1 µM, first compound 0.03 µM) 73.6% | viability, T/C (second compound 1 µM, first compound 0.0949 µM) 79.1% | viability, T/C (second compound 1 µM, first compound 0.3 µM) 77.1% | viability, T/C (second compound 3.16 µM, first compound 0.000949 µM) 49.1% | viability, T/C (second compound 3.16 µM, first compound 0.003 µM) 51.8% | viability, T/C (second compound 3.16 µM, first compound 0.00949 µM) 41.9% | viability, T/C (second compound 3.16 µM, first compound 0.03 µM) 25.1% | viability, T/C (second compound 3.16 µM, first compound 0.0949 µM) 42% | viability, T/C (second compound 3.16 µM, first compound 0.3 µM) 37.5% | viability, T/C (second compound 10 µM, first compound 0.000949 µM) 28.3% | viability, T/C (second compound 10 µM, first compound 0.003 µM) 26.9% | viability, T/C (second compound 10 µM, first compound 0.00949 µM) 19.7% | viability, T/C (second compound 10 µM, first compound 0.03 µM) 15.5% | viability, T/C (second compound 10 µM, first compound 0.0949 µM) 22.8% | viability, T/C (second compound 10 µM, first compound 0.3 µM) 24.3%

COc1cc(Nc2ncc3c(n2)-c2ccc(Cl)cc2C(c2c(F)cccc2OC)=NC3)ccc1C(=O)O + CC(CO)NC(=O)c1cc(-c2ccc(Cl)cc2)nn(-c2cnn(C)c2)c1=O
10000 nM: IC50 [2]
> 10000 nM: IC50 [1] | IC50 [3] | IC50 [4] | IC50 [5]
inactive: viability, T/C [6] 97% | viability, T/C [7] 93.6% | viability, T/C [8] 66% | viability, T/C [9] 57.6% | viability, T/C [10] 52.2% | viability, T/C [11] 46.1% | viability, T/C [12] 87.1% | viability, T/C [13] 107% | viability, T/C [14] 66.2% | viability, T/C [15] 55.2% | viability, T/C [16] 48% | viability, T/C [17] 48.1% | viability, T/C [18] 93.5% | viability, T/C [19] 104% | viability, T/C [20] 66.2% | viability, T/C [21] 61% | viability, T/C [22] 48.1% | viability, T/C [23] 45.9% | viability, T/C [24] 88.9% | viability, T/C [25] 90.6% | viability, T/C [26] 60.2% | viability, T/C [27] 58.5% | viability, T/C [28] 46.4% | viability, T/C [29] 47.2% | viability, T/C [30] 94.7% | viability, T/C [31] 79.9% | viability, T/C [32] 60.8% | viability, T/C [33] 50.6% | viability, T/C [34] 55.5% | viability, T/C [35] 46.3%

COc1cccc2c1C(=O)c1c(O)c3c(c(O)c1C2=O)CC(O)(C(=O)CO)CC3OC1CC(N)C(O)C(C)O1 (configuration not stated)
< 31.6 nM: IC50 (curve of compound)
active: viability, T/C (compound 0.316 µM) 3.14% and 7.44% and 4.25% | viability, T/C (compound 1 µM) 0.97% and 2.58% and 1.55% | viability, T/C (compound 3.16 µM) 1.22% and 1.89% and 0.79% | viability, T/C (compound 10 µM) 1.82% and 4.62% and 3.32%
inactive: viability, T/C (compound 0.0316 µM) 19% and 41.1% and 29.2% | viability, T/C (compound 0.1 µM) 13.1% and 28.8% and 16.9%

O=C(c1cc(Cc2n[nH]c(=O)c3ccccc23)ccc1F)N1CCN(C(=O)C2CC2)CC1 + CC(CO)NC(=O)c1cc(-c2ccc(Cl)cc2)nn(-c2cnn(C)c2)c1=O
> 10000 nM: IC50 [1] | IC50 [2] | IC50 [3] | IC50 [4] | IC50 [5]
inactive: viability, T/C [6] 105% | viability, T/C [7] 107% | viability, T/C [8] 117% | viability, T/C [9] 110% | viability, T/C [10] 98.8% | viability, T/C [11] 95.2% | viability, T/C [12] 118% | viability, T/C [13] 107% | viability, T/C [14] 110% | viability, T/C [15] 106% | viability, T/C [16] 105% | viability, T/C [17] 97.9% | viability, T/C [18] 120% | viability, T/C [19] 115% | viability, T/C [20] 115% | viability, T/C [21] 108% | viability, T/C [22] 113% | viability, T/C [23] 101% | viability, T/C [24] 107% | viability, T/C [25] 112% | viability, T/C [26] 105% | viability, T/C [27] 105% | viability, T/C [28] 96.9% | viability, T/C [29] 106% | viability, T/C [30] 109% | viability, T/C [31] 115% | viability, T/C [32] 98% | viability, T/C [33] 97.1% | viability, T/C [34] 105% | viability, T/C [35] 102%

CC1COCCN1c1cc(C2(S(C)(=N)=O)CC2)nc(-c2ccnc3[nH]ccc23)n1 (configuration not stated) + CC(CO)NC(=O)c1cc(-c2ccc(Cl)cc2)nn(-c2cnn(C)c2)c1=O
inactive: viability, T/C [6] 90.6% | viability, T/C [7] 88.8% | viability, T/C [8] 92.3% | viability, T/C [9] 92.9% | viability, T/C [10] 134% | viability, T/C [11] 68.3% | viability, T/C [12] 92.2% | viability, T/C [13] 88.2% | viability, T/C [14] 95.2% | viability, T/C [15] 112% | viability, T/C [16] 136% | viability, T/C [17] 75.4% | viability, T/C [18] 108% | viability, T/C [19] 100% | viability, T/C [20] 108% | viability, T/C [21] 111% | viability, T/C [22] 123% | viability, T/C [23] 60.8% | viability, T/C [24] 93.9% | viability, T/C [25] 98.7% | viability, T/C [26] 107% | viability, T/C [27] 110% | viability, T/C [28] 123% | viability, T/C [29] 58.9% | viability, T/C [30] 98.6% | viability, T/C [31] 94.9% | viability, T/C [32] 81% | viability, T/C [33] 95.9% | viability, T/C [34] 104% | viability, T/C [35] 75.2%
> 10000 nM: IC50 [1] | IC50 [2] | IC50 [3] | IC50 [4] | IC50 [5]

NS(=O)(=O)OCC1CC(n2ccc3c(NC4CCc5ccccc54)ncnc32)CC1O (configuration not stated)
2340 nM and 3420 nM and 1640 nM: IC50 (curve of compound)
9.55% and 14.4% and 8.49%: viability, T/C (compound 10 µM)
inactive: viability, T/C (compound 0.0316 µM) 99.2% and 99.8% and 104% | viability, T/C (compound 0.1 µM) 113% and 118% and 105% | viability, T/C (compound 0.316 µM) 114% and 130% and 106% | viability, T/C (compound 1 µM) 91.4% and 97.8% and 66.8% | viability, T/C (compound 3.16 µM) 35.2% and 53.6% and 26.8%

COc1cc(C2c3cc4c(cc3C(OC3OC5COC(C)OC5C(O)C3O)C3COC(=O)C23)OCO4)cc(OC)c1O (configuration not stated)
inactive: viability, T/C (compound 0.0316 µM) 96.6% and 94.9% and 94.2% | viability, T/C (compound 0.1 µM) 98.4% and 97.4% and 106% | viability, T/C (compound 0.316 µM) 61% and 81.5% and 67.7% | viability, T/C (compound 1 µM) 14.2% and 22% and 29.3%
9.05% and 11.6% and 17.3%: viability, T/C (compound 3.16 µM)
4.28% and 5.57% and 7.14%: viability, T/C (compound 10 µM)
417 nM and 584 nM and 553 nM: IC50 (curve of compound)

CCc1c2c(nc3ccc(O)cc13)-c1cc3c(c(=O)n1C2)COC(=O)[C@]3(O)CC
8.17 nM and 20.7 nM and 9.7 nM: IC50 (curve of compound)
inactive: viability, T/C (compound 0.000949 µM) 96.8% and 105% and 92.3% | viability, T/C (compound 0.003 µM) 83.7% and 99.2% and 88.8% | viability, T/C (compound 0.00949 µM) 44.9% and 86.1% and 49.6% | viability, T/C (compound 0.03 µM) 14.9% and 32.5% and 16.6%
8.05% and 16.5% and 9.46%: viability, T/C (compound 0.0949 µM)
5.61% and 9.17% and 5.63%: viability, T/C (compound 0.3 µM)
